By inhibition is commonly meant the drop in the measured response relative to a control, in per cent.
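Also: compounds preincubated 30 min at room temperature in the assay mixture, activity referenced to a 0.5% (v/v) DMSO control taken as 100%, run in triplicate.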

The assay addresses T1, SHP2 (Homo sapiens, UniProt Q06124).
T1 sequence (Q06124 1-593): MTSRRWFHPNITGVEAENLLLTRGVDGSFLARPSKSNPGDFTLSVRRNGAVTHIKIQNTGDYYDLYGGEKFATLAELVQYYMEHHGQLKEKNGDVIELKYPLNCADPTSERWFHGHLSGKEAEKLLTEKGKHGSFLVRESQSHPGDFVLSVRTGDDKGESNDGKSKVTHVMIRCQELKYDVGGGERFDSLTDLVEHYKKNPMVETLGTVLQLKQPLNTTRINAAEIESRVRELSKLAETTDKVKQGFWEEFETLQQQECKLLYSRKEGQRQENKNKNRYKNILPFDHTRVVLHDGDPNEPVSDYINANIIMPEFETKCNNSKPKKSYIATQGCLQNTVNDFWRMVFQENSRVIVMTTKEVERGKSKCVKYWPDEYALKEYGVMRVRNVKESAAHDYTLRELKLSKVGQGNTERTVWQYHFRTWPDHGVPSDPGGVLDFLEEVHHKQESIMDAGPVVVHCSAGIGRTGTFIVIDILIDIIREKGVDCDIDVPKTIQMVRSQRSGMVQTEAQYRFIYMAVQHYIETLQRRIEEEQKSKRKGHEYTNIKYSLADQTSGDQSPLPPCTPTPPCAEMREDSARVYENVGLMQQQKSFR
The experiment in a line: biochemical. The following applies: read-out: SHP2 inhibition (%)@0.1 μM.
Turning to `Nc1nc(N2CCC3(CC2)c2ncccc2C[C@H]3N)cnc1Sc1ccnc(N)c1Cl` [Example 4, (R)-1′-(6-amino-5-((2-amino-3-chloropyridin-4-yl)thio)pyrazin-2-yl)-5,6-dihydrospiro[cyclopenta[b]pyridine-7,4′-piperidin]-6-amine], the inhibition at 0.1 µM stood at 20%.
The result for `CC(=O)N1CC(F)(F)c2c(Sc3ncc(N4CCC5(CC4)c4ccccc4C[C@H]5N)nc3N)cccc21` [Example 6, (R)-1-(4-((3-amino-5-(2-amino-2,3-dihydrospiro[indene-1,4′-piperidin]-1′-yl)pyrazin-2-yl)thio)-3,3-difluoroindolin-1-yl)ethan-1-one] reads 66%.
The figure for `Nc1nc(N2CCC3(CC2)Cc2cccnc2C[C@H]3N)cnc1Sc1ccnc(N)c1Cl` [Example 9, (R)-1-(6-amino-5-((2-amino-3-chloropyridin-4-yl)thio)pyrazin-2-yl)-7,8′-dihydro-5′H-spiro [piperidine-4,6′-quinolin]-7′-amine] is 54%.
The figure for `COc1ccc2c(c1)CC1(CCN(c3cnc(Sc4ccnc(N)c4Cl)c(N)n3)CC1)[C@@H]2N` [Example 11, (S)-1′-(6-amino-5-((2-amino-3-chloropyridin-4-yl)thio)pyrazin-2-yl)-5-methoxy-1,3-dihydrospiro [indene-2,4′-piperidin]-1-amine] is 74%; for `Nc1nc(N2CCC3(CC2)Cc2ccc(Cl)cc2[C@H]3N)cnc1Sc1ccnc(N)c1Cl` [Example 15, (S)-1′-(6-amino-5-((2-amino-3-chloropyridin-4-yl)thio)pyrazin-2-yl)-6-chloro-1,3-dihydrospiro[indene-2,4′-piperidin]-1-amine] it is 83%.
As for `N#Cc1cccc2c1CC1(CCN(c3cnc(Sc4ccnc(N)c4Cl)c(N)n3)CC1)[C@@H]2N` [Example 16, (S)-1-amino-1′-(6-amino-5-((2-amino-3-chloropyridin-4-yl)thio)pyrazin-2-yl)-1,3-dihydrospiro [indene-2,4′-piperidine]-4-carbonitrile], the inhibition at 0.1 µM was 75%.
The result for `Nc1nc(N2CCC3(CC2)Cc2ccccc2[C@@H]3N)cnc1Sc1ccnc(N)c1Cl` [Example 18, (R)-1′-(6-amino-5-((2-amino-3-chloropyridin-4-yl)thio)pyrazin-2-yl)-1,3-dihydrospiro[indene-2,4′-piperidin]-1-amine] reads 35%; that for `COc1cc2c(cn1)[C@@H](N)C1(CCN(c3cnc(Sc4ccnc(N)c4Cl)c(N)n3)CC1)C2` [Example 20], 86%.
The result for `Nc1nc(N2CCC3(CC2)Cc2ccncc2[C@H]3N)cnc1Sc1ccnc(N)c1Cl` [Example 21, (S)-1′-(6-amino-5-((2-amino-3-chloropyridin-4-yl)thio)pyrazin-2-yl)-5,7-dihydrospiro[cyclopenta [c]pyridine-6,4′-piperidin]-7-amine] reads 49%.
The figure for `Nc1nc(N2CCC3(CC2)Cc2cnccc2[C@H]3N)cnc1Sc1ccnc(N)c1Cl` [Example 22, (S)-1′-(6-amino-5-((2-amino-3-chloropyridin-4-yl)thio)pyrazin-2-yl)-5,7-dihydrospiro [cyclopenta[c]pyridine-6,4′-piperidin]-5-amine] is 30%.
As to `Cc1ccc2c(c1)[C@@H](N)C1(CCN(c3cnc(Sc4ccnc(N)c4Cl)c(N)n3)CC1)C2` [Example 23, (S)-1′-(6-amino-5-((2-amino-3-chloropyridin-4-yl)thio)pyrazin-2-yl)-6-methyl-1,3-dihydro-spiro[indene-2,4′-piperidin]-1-amine], the inhibition at 0.1 µM is 71%.
Regarding `C[S+]([O-])c1ccc2c(c1)[C@@H](N)C1(CCN(c3cnc(Sc4ccnc(N)c4Cl)c(N)n3)CC1)C2` (stereo partly drawn) [Example 25, (1S)-1′-(6-amino-5-((2-amino-3-chloropyridin-4-yl)thio)pyrazin-2-yl)-6-(methylsulfinyl)-1,3-dihydrospiro [indene-2,4′-piperidin]-1-amine], the inhibition at 0.1 µM came to 72%.
The result for `CN(C)C(=O)c1ccc2c(c1)[C@@H](N)C1(CCN(c3cnc(Sc4ccnc(N)c4Cl)c(N)n3)CC1)C2` [Example 27, (S)-1-amino-1′-(6-amino-5-((2-amino-3-chloropyridin-4-yl)thio)pyrazin-2-yl)-N,N-dimethyl-1,3-dihydrospiro [indene-2,4′-piperidine]-6-carboxamide] reads 79%.
Turning to `Nc1nc(N2CCC3(CC2)Cc2ccc(Br)cc2[C@H]3N)cnc1Sc1ccnc(N)c1Cl` [Example 28, (S)-1′-(6-amino-5-((2-amino-3-chloropyridin-4-yl)thio)pyrazin-2-yl)-6-bromo-1,3-dihydro-spiro[indene-2,4′-piperidin]-1-amine], the inhibition at 0.1 µM came out at 75%.
The result for `Nc1nc(N2CCC3(CC2)Cc2c(Br)cccc2[C@H]3N)cnc1Sc1ccnc(N)c1Cl` [Example 29, (S)-1′-(6-amino-5-((2-amino-3-chloropyridin-4-yl)thio)pyrazin-2-yl)-4-bromo-1,3-dihydro-spiro[indene-2,4′-piperidin]-1-amine] reads 77%.
The figure for `Nc1nc(N2CCC3(CC2)Cc2c(ccc4ccccc24)[C@H]3N)cnc1Sc1ccnc(N)c1Cl` [Example 31, (S)-1′-(6-amino-5-((2-amino-3-chloropyridin-4-yl)thio)pyrazin-2-yl)-1,3-dihydrospiro[cyclopenta [a]naphthalene-2,4′-piperidin]-3-amine] is 70%; for `COc1cc2c(cc1Cl)[C@@H](N)C1(CCN(c3cnc(Sc4ccnc(N)c4Cl)c(N)n3)CC1)C2` [Example 32, (S)-1′-(6-amino-5-((2-amino-3-chloropyridin-4-yl)thio)pyrazin-2-yl)-6-chloro-5-methoxy-1,3-dihydrospiro[indene-2,4′-piperidin]-1-amine] it is 85%.
For the compound `Nc1ccc2c(c1)[C@@H](N)C1(CCN(c3cnc(Sc4ccnc(N)c4Cl)c(N)n3)CC1)C2` [Example 33, (S)-1′-(6-amino-5-((2-amino-3-chloropyridin-4-yl)thio)pyrazin-2-yl)-1,3-dihydrospiro[indene-2,4′-piperidine]-1,6-diamine], the inhibition at 0.1 µM was 81%.
In the case of `Nc1nc(N2CCC3(CC2)Cc2ccc(-n4ccnc4)cc2[C@H]3N)cnc1Sc1ccnc(N)c1Cl` [Example 36, (S)-1′-(6-amino-5-((2-amino-3-chloropyridin-4-yl)thio)pyrazin-2-yl)-6-(1H-imidazol-1-yl)-1,3-dihydrospiro [indene-2,4′-piperidin]-1-amine], the inhibition at 0.1 µM was determined as 65%.
The result for `Nc1nc(N2CCC3(CC2)Cc2ccc(-n4cccc4)cc2[C@H]3N)cnc1Sc1ccnc(N)c1Cl` [Example 37, (S)-1′-(6-amino-5-((2-amino-3-chloropyridin-4-yl)thio)pyrazin-2-yl)-6-(1H-pyrrol-1-yl)-1,3-dihydro-spiro[indene-2,4′-piperidin]-1-amine] reads 76%; that for `Nc1nc(N2CCC3(CC2)Cc2cc(F)c(Br)cc2[C@H]3N)cnc1Sc1ccnc(N)c1Cl` [Example 38, (S)-1′-(6-amino-5-((2-amino-3-chloropyridin-4-yl)thio)pyrazin-2-yl)-6-bromo-5-fluoro-1,3-dihydrospiro[indene-2,4′-piperidin]-1-amine], 75%.
The figure for `Nc1nc(N2CCC3(CC2)Cc2cc(F)c(F)cc2[C@H]3N)cnc1Sc1ccnc(N)c1Cl` [Example 39, (S)-1′-(6-amino-5-((2-amino-3-chloropyridin-4-yl)thio)pyrazin-2-yl)-5,6-difluoro-1,3-dihydro-spiro[indene-2,4′-piperidin]-1-amine] is 67%; for `Nc1nc(N2CCC3(CC2)Cc2ccc(F)c(F)c2[C@H]3N)cnc1Sc1ccnc(N)c1Cl` [Example 40, (S)-1′-(6-amino-5-((2-amino-3-chloropyridin-4-yl)thio)pyrazin-2-yl)-6,7-difluoro-1,3-dihydro-spiro[indene-2,4′-piperidin]-1-amine] it is 74%.
The result for `CP(C)(=O)c1cc2c(cc1F)CC1(CCN(c3cnc(Sc4ccnc(N)c4Cl)c(N)n3)CC1)[C@@H]2N` [Example 41, (S)-(1-amino-1′-(6-amino-((2-amino-3-chloropyridin-4-yl)thio)pyrazin-2-yl)-5-fluoro-1,3-dihydrospiro[indene-2,4′-piperidin]-6-yl) dimethylphosphine oxide] reads 69%.
For `N#Cc1cc2c(cc1F)CC1(CCN(c3cnc(Sc4ccnc(N)c4Cl)c(N)n3)CC1)[C@@H]2N` [Example 42, (S)-1-amino-1′-(6-amino-5-((2-amino-3-chloropyridin-4-yl)thio)pyrazin-2-yl)-5-fluoro-1,3-dihydro-spiro[indene-2, 4′-piperidine]-6-carbonitrile], the inhibition at 0.1 µM came to 49%.
In the case of `NC(=O)c1cc2c(cc1F)CC1(CCN(c3cnc(Sc4ccnc(N)c4Cl)c(N)n3)CC1)[C@@H]2N` [Example 43, (S)-1-amino-1′-(6-amino-5-((2-amino-3-chloropyridin-4-yl)thio)pyrazin-2-yl)-5-fluoro-1,3-dihydro-spiro[indene-2, 4′-piperidine]-6-carboxamide], the inhibition at 0.1 µM was 79%.
The result for `NC(=O)Nc1ccc2c(c1)[C@@H](N)C1(CCN(c3cnc(Sc4ccnc(N)c4Cl)c(N)n3)CC1)C2` [Example 46, (S)-1-(1-amino-1′-(6-amino-5-((2-amino-3-chloropyridin-4-yl)thio)pyrazin-2-yl)-1,3-dihydrospiro [indene-2,4′-piperidin]-6-yl)urea] reads 69%.

The values are drawn from patent US10988466B2, “Heterocyclic derivatives useful as SHP2 inhibitors” (Jacobio Pharmaceuticals Co., Ltd., priority 2017, dated 2021).
